Source: article PMC6627486, “Ipomoeassin F Binds Sec61α to Inhibit Protein Translocation” (Journal of the American Chemical Society, 2019)

How the values were obtained:
HCT-116 cells = test: Metabolic labelling of nascent proteins in HCT116 cells; format: cell-based, human; settings: HCT-116, 1 μM, 35S labelling
Experimental: Metabolic Labelling Assays in HCT116 Cells
HCT116 cells were counted using an automated cell counter (BioRad TC20) immediately prior to each experiment. 3 ml of HCT116 cells at a density of 0.166x10^6 cells/mL were seeded to 6-well plates (0.5x10^6 cells/well) and then incubated at 37 °C and 5% CO 2 for 24 h. The compounds were dissolved in DMSO to make drug stocks (10 mM). The stock solutions were diluted with DMEM high glucose culture medium lacking methionine and cysteine to make a fresh working solution immediately prior to each test. Cells were washed twice and 1ml of fresh DMEM lacking methionine and cysteine was added to each well.
Subsequently, the cells were treated with 250 µl of compound solutions in a total volume of 1 ,250 µl/well.
The plate was then incubated at 37 °C and 5% CO 2 for 30 min before 100 µCi 35S-labelled methionine/cysteine was added (Expre35s35s protein labelling mix). Plates were incubated for a further 30 min, then media collected and cells harvested by scraping after four washes in ice-cold PBS. Total protein was acquired by RIPA extraction from the cell pellet, cytoplasmic fraction was acquired by partial permeabilization of the outer cell membranes with 0.15% Digitonin followed by centrifugation, secreted proteins were acquired by TCA precipitation of the media. […]

[1] = molecular target: T1, Sec61-mediated protein translocation (Canis lupus familiaris, UniProt P38377); test: In vitro translation and Sec61-dependent translocation into ER microsomes; format: biochemical, canine; settings: type II membrane protein Ii, ER microsomes
T1 construct: ER microsomes derived from canine pancreas; from tissue; host or cells: canine pancreas ER microsomes (nuclease-treated)
From the text: In Vitro Membrane Translocation Assays.
Unless otherwise stated, all cDNAs are of human origin and as previously described: CytB5OPG2,16 GypC,17 ppαF (Saccharomyces cerevisiae),16 ppcecAOPG2 (Hyalophora cecropia),16 PPL (Bos Taurus),16 Sec61βOPG216 and VCAM1.17 Ii encodes residues 17 to 232 of the short form of human HLA class II histocompatibility antigen gamma chain (Ii; P04232, isoform 2). Linear DNA templates were generated by PCR and transcribed into RNA using T7 or SP6 polymerase (Promega).
In vitro translation and translocation into ER microsomes
Translation reactions (20 μL) were performed in nuclease-treated rabbit reticulocyte lysate (Promega) in the presence of EasyTag EXPRESS 35S Protein Labelling Mix containing [35S] methionine (Perkin Elmer) (0.533 MBq; 30.15 TBq/mmol). Amino acids minus methionine (Promega) were added to 25 µM each, […]
equivalent volume of DMSO, and nuclease-treated ER microsomes (from stock with OD280 = 44/mL) were added to 6.5% (v/v). Lastly, 10% volume of in vitro transcribed mRNA (from 200-1000 ng/μL stocks) encoding the relevant precursor protein was added and translation reactions performed for 20 min at 30°C. Following incubation with 0.1 mM puromycin for 5 min at 30°C to ensure translational termination and ribosome release, membrane-associated fractions were isolated by centrifugation through an 80 μL high-salt cushion (0.75 M sucrose, 0.5 M KOAc, 5 mM Mg(OAc)2, 50 mM Hepes-KOH, pH 7.9) at 100,000 x g for 10 min at 4°C in a TLA100 rotor (Beckmann). Membrane pellets were suspended directly in SDS (sodium dodecyl sulphate) sample buffer (0.02% bromophenol blue, 62.5 mM, 4% (w/v) SDS, 10% (v/v) glycerol, pH 7.6, 1 M dithiothreitol) and, where indicated, treated with 1,000 U of Endoglycosidase H (New England Biolabs) for 30 min at 37°C prior to analysis. All samples were denatured for 10 min at 70°C prior to resolution by SDS-PAGE (12% or 16% polyacrylamide gels, 120 V, 120 min), gels were fixed (20% MeOH, 10% AcOH) for 5 min, dried (BioRad gel dryer) for 2 h at 65°C and, following exposure to a phosphorimaging plate for 24-72 h, radiolabelled products were visualised using a Typhoon FLA-7000 (GE Healthcare).
Quantitative analysis of Ii membrane insertion was performed using AIDA v.5.0 (Raytest Isotopenmeβgeräte) whereby the ratio of the signal intensity for the 2Gly/0Gly forms was used as a read-out to estimate efficiency of integration into the ER membrane. This value was then expressed relative to the matched DMSO control in order to derive the mean relative ER insertion from three independent experiments (n=3). Statistical significance of the effectiveness of Ipom-F analogues (RM one-way ANOVA) was determined using Tukey’s multiple comparisons test. IC50 value estimates were determined using non-linear regression to fit data to a curve of variable slope (four parameters) using the least squares fitting method in which the bottom and top plateaus of the curve were defined as 0% and 100% respectively. The differences between the estimated IC50 values for the three compounds analysed were statistically significant (****) according to the extra-sum-of-squares F test. Statistical analyses and IC50 estimates were performed using Prism 7.0d (GraphPad) with statistical significance given as n.s., non - significant and ****, P < 0.0001.
U2-OS secNLuc-ATZ Secretion and Cell Viability Assays

HCT116 = test: cells; format: cell-based; settings: Homo sapiens, HCT-116; HCT116, 72 h, Alamar Blue, assayed separately; read-out: Cytotoxicity (IC50)
Experimental: (§1) AlamarBlue Cytotoxicity Assay
(§2) MDA-MB-231, MCF-10A and HCT116. Viable cells were counted with a hemocytometer immediately before each experiment . Experiments were done in triplicate. First, 100 μL of MDA-MB-231 cells or MCF-10A cells at the density of 50,000 cells/mL was seeded in a 96-well plate (5,000 cells/well) and then incubated at 37 °C and 5% CO2 for 24 h. The compounds were dissolved in DMSO (dimethyl sulfoxide) to make drug stocks (10 mM). The stock solutions were diluted with the complete DMEM high glucose culture medium to make a series of gradient fresh working solutions right before each test. Subsequently, the cells were treated with 100 μL of the freshly made gradient working solution in a total volume of 200 μL/well for 72 h. After that, the media were discarded and 200 μL of the fresh complete medium containing 10% of AlamarBlue (resazurin) stock solution was added to each well. The plate was then incubated at 37 °C and 5% CO2 for another 3 h. Emission of each well at 620 nm was detected by a microplate reader (BioTek Synergy H1) at excitation 580 nm. For HCT116 WT and mutant lines, cells were seeded at 1000 cells/ well in complete McCoys medium. Compounds were diluted from a DMSO stock into culture medium as described above. Cells were treated for 96 h, then viability measured with AlamarBlue, detected using the conditions described but with a BMG Fluostar Optima Microplate Reader. The percentage of viability compared to the negative control (DMSO-treated cells) was determined. […]
HCT116 and HEK293T. Viable cells were counted using an automated cell counter (BioRad TC20) before each experiment. […] Emission of each well at 620 nm was detected by a microplate reader (Perkin Elmer EnSpire) at excitation 580 nm. The percentage of viability compared to the negative control (DMSO -treated cells) was determined. […]
Figure S1. […] (C) HCT116 colon carcinoma cells were treated with increasing concentrations of analogues 8, 14, 15, CT8, ipomoeassin F or carrier (0.1% DMSO) and cell viability was assessed at 72 h by the Alamar Blue assay (mean ± S.D., n = 4). […]

MDA-MB-231 = test: AlamarBlue cytotoxicity assay, MDA-MB-231; format: cell-based, human; settings: MDA-MB-231, 72 h, AlamarBlue; read-out: Cytotoxicity (IC50)
Experimental: as §1
as §2, with “nm.” for “nm. For HCT116 WT and mutant lines, cells were seeded at 1000 cells/ well in complete McCoys medium. Compounds were diluted from a DMSO stock into culture medium as described above. Cells were treated for 96 h, then viability measured with AlamarBlue, detected using the conditions described but with a BMG Fluostar Optima Microplate Reader. The percentage of viability compared to the negative control (DMSO-treated cells) was determined.”
(§3) Microplate Reader. The percentage of viability compared to the negative control (DMSO-treated cells) […]
(§4) was determined. […]

MCF-10A = test: AlamarBlue cytotoxicity assay, MCF-10A; format: cell-based, human; settings: 72 h
Experimental: as §1
as §2, with “nm.” for “nm. For HCT116 WT and mutant lines, cells were seeded at 1000 cells/ well in complete McCoys medium. Compounds were diluted from a DMSO stock into culture medium as described above. Cells were treated for 96 h, then viability measured with AlamarBlue, detected using the conditions described but with a BMG Fluostar Optima Microplate Reader. The percentage of viability compared to the negative control (DMSO-treated cells) was determined.”
as §3, §4

MCF7 = test: MTT cytotoxicity assay, MCF7; format: cell-based, human; settings: MCF7, 72 h, MTT; read-out: Cytotoxicity (IC50)
Experimental: Two human breast cancer cell lines (MDA-MB-231 and MCF7) and one human breast non-tumorigenic epithelial cell line (MCF-10A) were maintained in a DMEM high glucose culture medium supplemented with 10% fetal bovine serum (FBS) and 2 mM L-glutamine. The cells were grown in a humidified atmosphere of 5% CO2 and 95% air at 37 °C . The culture medi um w as changed every 2–4 days depending on cell density. Cell cultures were passaged once a week using 0.125% trypsin-EDTA to detach the cells from culture flasks/dishes.
The human colorectal cancer cell line HCT116 was maintained in McCoy’s 5A (modified) medium supplemented with 10% fetal bovine serum (FBS). The human embryonic kidney (HEK293T and HEK293 FRT TRex) cell line was maintained in DMEM high glucose culture medium supplemented with 10% fetal bovine serum (FBS).
HepG2 cells were cultured in DMEM supplemented with 10% fetal bovine serum and 2 mM L-glutamine at 37°C under 5% CO2.
Viable cells were counted with a hemocytometer immediately before each experiment. Experiments were done in triplicate. First, 100 μL of MCF7 cells at the density of 50,000 cells/mL were seeded in a 96-well plate (5,000 cells/well), which was incubated at 37 °C and 5% CO2 atmosphere for 24 h. The compounds were dissolved in DMSO (dimethyl sulfoxide) to make drug stocks (10 mM). The stock solutions were diluted with the complete DMEM high glucose culture medium to make a series of gradient fresh working solutions right before each test. Subsequently, the cells were treated with 100 μL of the freshly made gradient working solution in a total volume of 200 μL/well for 72 h. After that, the media were discarded and 200 μL of the fresh complete medium containing 10% of MTT stock solution (5 mg/mL) was added to each well. The plate was then incubated at 37 °C and 5% CO2 for 3 h. Next, 180 μL of the medium was discarded from each well , and 180 μL of DMSO was added to each well to dissol ve formazan crystals. Absorbance of formazan was detected by a microplate reader (BioTek Synergy H1) at 570 nm with 650 nm as the reference wavelength. The percentage of viability compared to the negative control (DMSO-treated cells) was determined . GraphPad Prism 6 software was used to make a plot of %

[2] = system: A2780 human ovarian cancer cells; set-up: method as in PMID 15844934; settings: read-out: IC50, proliferation of A2780 cells; cited from earlier work

T1 sequence (P38377 whole entry): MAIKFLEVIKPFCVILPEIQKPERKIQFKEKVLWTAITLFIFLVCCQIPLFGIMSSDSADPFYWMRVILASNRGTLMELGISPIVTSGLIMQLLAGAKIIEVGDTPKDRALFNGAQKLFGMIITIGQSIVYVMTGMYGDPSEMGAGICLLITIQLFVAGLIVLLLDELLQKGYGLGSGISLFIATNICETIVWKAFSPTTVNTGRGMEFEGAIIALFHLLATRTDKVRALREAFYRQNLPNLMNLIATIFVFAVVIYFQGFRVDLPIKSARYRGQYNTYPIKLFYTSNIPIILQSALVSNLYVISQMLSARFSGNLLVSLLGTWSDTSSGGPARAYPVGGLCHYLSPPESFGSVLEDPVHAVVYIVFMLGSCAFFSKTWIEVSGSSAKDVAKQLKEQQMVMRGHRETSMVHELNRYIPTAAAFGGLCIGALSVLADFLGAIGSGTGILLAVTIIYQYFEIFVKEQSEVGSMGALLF
T1 sequence (P60467 whole entry, further chain): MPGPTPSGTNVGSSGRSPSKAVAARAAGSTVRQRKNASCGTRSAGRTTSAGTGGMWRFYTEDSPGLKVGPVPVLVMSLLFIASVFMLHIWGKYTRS
T1 sequence (P60058 whole entry, further chain): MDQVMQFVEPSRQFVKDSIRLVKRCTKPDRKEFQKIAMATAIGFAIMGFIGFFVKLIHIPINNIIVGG

Compound: C/C=C(\C)C(=O)O[C@@H]1[C@@H](O)[C@@H]2O[C@H]3[C@H](O[C@@H](CCCCC)CCCCCCC(=O)CCC(=O)OC[C@@H](O2)[C@H]1OC(=O)CCc1ccccc1)O[C@H](C)[C@H](OC(C)=O)[C@@H]3O [compound 14]
- inhibition of production of secreted proteins compared with ipomoeassin F (HCT-116 cells): less potently
- inhibition of Ii membrane insertion [1]: far less effective inhibitor
- IC50 (HCT116): 1.87 µM

Compound: C/C=C(\C)C(=O)O[C@@H]1[C@@H](O)[C@@H]2O[C@H]3[C@H](O[C@@H](CCCCC)CCCCCCC(=O)CCC(=O)OC[C@@H](O2)[C@H]1OC(=O)/C=C/c1ccc(OCc2cn(CCOCCOCCOCCNS(=O)(=O)c4ccc(-c5c6ccc(=[N+](CC)CC)cc-6oc6cc(N(CC)CC)ccc56)c(S(=O)(=O)[O-])c4)nn2)cc1)O[C@H](C)[C@H](OC(C)=O)[C@@H]3O [compound 12]
- IC50 (MDA-MB-231): 0.253 µM
- IC50 (MCF-10A): 0.134 µM
- IC50 (MCF7): 0.172 µM

Compound: C/C=C(\C)C(=O)O[C@@H]1[C@@H](O)[C@@H]2O[C@H]3[C@H](O[C@@H](CCC)CCCCC[C@H](OC(C)=O)C(=O)CCC(=O)OC[C@@H](O2)[C@H]1OC(=O)/C=C/c1ccccc1)O[C@H](C)[C@H](OC(C)=O)[C@@H]3O [ipomoeassin D]
- IC50 [2]: 0.035 µM
